For eight compounds, GI50 and TGI results are on record in PubChem BioAssay (NCI).

What all share (test): growth of human tumour cells (NCI), 48 h
The test system of assay [1] is 786-0 renal.
In assay [2] the test system is CCRF-CEM leukemia.
Assay [3] has as its system KM12 colon.
For assay [4], the system named is MDA-MB-231 breast.
Assay [5] concerns MOLT-4 leukemia.
The test system of assay [6] is OVCAR-3 ovarian.
Assay [7] has as its system PC-3 prostate.
Assay [8] deals with SF-539 CNS.
The test system of assay [9] is SK-MEL-2 melanoma.
Assay [10] deals with SR leukemia.

SMILES strings stand for the structures.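 Assay format: 96-well plates, 48-hour exposure. The concentration for 50% growth inhibition is given as GI50. TGI: concentration producing complete growth inhibition.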

As for `Nc1c(C(=O)c2cccc(C#CCO)c2)cnn1-c1ccc(F)cc1`, the GI50 in [1], in assay [2], in [3], in [4], in [5] and in assay [6] was greater than 25 µM each time. The GI50 in assay [7], in [8], in assay [9] and in assay [10] was greater than 25 µM each time. The TGI in assay [1], in assay [2], in assay [3], in assay [4], in assay [5] and in assay [6] was greater than 25 µM throughout. Also, the TGI in [7], in assay [8], in [9] and in assay [10] was greater than 25 µM throughout.

For the compound `COC(=N)c1c(N)[n+]([O-])c2ccc(F)cc2[n+]1[O-]`, the GI50 in [1], in [2], in [3], in assay [4], in assay [5] and in assay [6] was greater than 100 µM throughout. For the same compound, the GI50 in assay [7] is greater than 100 µM; in assay [8], greater than 100 µM; in assay [9], greater than 100 µM; in assay [10], 47.9 µM. For the same compound, the TGI in assay [1], in assay [2], in [3], in [4], in [5] and in assay [6] was greater than 100 µM in each case. The TGI in [7], in assay [8], in [9] and in assay [10] was greater than 100 µM each time.

As to `N#Cc1nc2c(S(=O)(=O)c3ccc(Cl)cc3)c(N)n(CCCN3CCOCC3)c2nc1C#N`, the GI50 in assay [1] was 17.3 µM; in assay [2], 2.19 µM; in assay [3], 12.3 µM; in assay [4], 3.58 µM; in assay [5], 2.63 µM; in assay [6], 3.29 µM. Also, the GI50 in assay [7] was 26.7 µM; in [8], 2.31 µM; in [9] it was 6.77 µM; in [10], 3.58 µM. Further, the TGI was 52.8 µM in assay [1]; 6.28 µM in [2]; 34.7 µM in [3]; 14.4 µM in assay [4]; 9.64 µM in assay [5]; 15.3 µM in assay [6]. Moreover, the TGI in assay [7] was found to be 95.4 µM; in assay [8] it was 7.9 µM; in [9], 24.5 µM; in [10], 31 µM.

Turning to `Cc1[nH]c2ccc(F)cc2c1-c1nc2c3cccnc3c3ncccc3c2[nH]1`, the GI50 in assay [1] is 0.327 µM; in assay [2] it was 0.193 µM; in assay [3] it was 0.391 µM; in [4], 0.277 µM; in assay [5], 0.298 µM; in assay [6], 0.268 µM. In addition, the results for the GI50 in assay [7], in assay [9] and in assay [10] were 0.393 µM, 0.51 µM and 0.134 µM, respectively. Moreover, the TGI in assay [1], in assay [2], in assay [3], in assay [4], in assay [5] and in assay [6] was greater than 100 µM throughout. Besides, the TGI in assay [7], in assay [9] and in assay [10] was greater than 100 µM each time.

As to `COC(=O)C1=C(C)NC(C)=C(C(=O)OCC(C)C)C1c1ccccc1[N+](=O)[O-]` (stereo not drawn), the GI50 is 3.55 µM in [1]; 2.45 µM in assay [2]; 2.94 µM in assay [3]; 4.04 µM in [4]; 3.31 µM in assay [5]; 6.35 µM in [6]. In addition, the GI50 is 3.54 µM in assay [7], 5.3 µM in assay [8], 4 µM in assay [9] and 2.53 µM in assay [10]. Further, the TGI in [1] was 12.6 µM; in assay [2] it was 11.3 µM; in [3], greater than 100 µM; in assay [4], 17.1 µM; in assay [5], 18.9 µM; in assay [6] it was 19.6 µM. Further, the TGI stood at 16.9 µM in assay [7], 16.8 µM in assay [8], 13.6 µM in assay [9] and 11.3 µM in assay [10].

For `CC[C@H](CO)Nc1nc(NCc2ccccc2)c2ncn(C(C)C)c2n1`, the GI50 in assay [1] was 31.9 µM; in assay [2], greater than 50.6 µM; in [3], 10.6 µM; in assay [4] it was 32.2 µM; in assay [6], 12.9 µM. The TGI is greater than 100 µM in [1]; greater than 100 µM in assay [2]; 60.2 µM in [3]; greater than 100 µM in assay [4]; greater than 67.4 µM in assay [6]; 70 µM in assay [7]. The TGI is 53.6 µM in [8], 44.6 µM in assay [9] and greater than 79.8 µM in assay [10].

For `CC1=C(CCC(C)NCc2ccc(OCCCN3CCCCC3)cc2)C(C)(C)CCC1` (stereo not drawn), the GI50 in assay [1] is 1.6 µM; in assay [2] it was 1.54 µM; in [3] it was 1.7 µM; in assay [4] it was 1.02 µM; in assay [6], 1.79 µM; in [7], 1.54 µM. Further, the figures for the GI50 in [8], in assay [9] and in assay [10] were 1.64 µM, 1.49 µM and 0.221 µM, respectively. Further, the TGI was 3.1 µM in assay [1]; 4.7 µM in assay [2]; 3.36 µM in assay [3]; 2.73 µM in assay [4]; 4.07 µM in assay [6]; 3.42 µM in assay [7]. In addition, the results for the TGI in assay [8], in assay [9] and in [10] were 3.22 µM, 3.08 µM and 0.608 µM, respectively.

As for `O=C1NOC(c2ccc(O)cc2)(c2ccc(O)cc2)c2ccccc21`, the GI50 in [1], in [2], in assay [3], in [4], in [5] and in assay [6] was greater than 100 µM each time. Moreover, the GI50 in [7], in assay [9] and in assay [10] was greater than 100 µM in each case. The TGI in assay [1], in assay [2], in assay [3], in [4], in [5] and in assay [6] was greater than 100 µM each time. Moreover, the TGI in assay [7], in assay [9] and in assay [10] was greater than 100 µM in each case.
